Assay results taken from the RepoRT retention time repository (doi:10.1016/j.jhazmat.2019.121712).

assay: Thermo Scientific Acclaim RSLC 120 C18, 100 × 2.1 mm, 2.2 µm, 30 °C; A: 90% water + 10% methanol + 0.01% formic acid + 5 mM ammonium formate; B: methanol + 0.01% formic acid + 5 mM ammonium formate; gradient (min/%B) 0.1/1 3/39 14/99.9 16/99.9; conditions: stereoisomer not certain

Structure (SMILES)	LC retention time [min]
Cc1cc2n[nH]nc2cc1C	6.76
COc1ccc(C(=O)c2cn(CCCCCO)c3ccccc23)cc1	9.18
NCCc1cnc[nH]1	1.58
CNC(=O)CSP(=S)(OC)OC	5.23
CC(=O)Nc1ccc(S(=O)(=O)Nc2cc(C)on2)cc1	5.28
CCCCC(CC)CN1C(=O)C2C3C=CC(C3)C2C1=O (stereo not given)	11.6
CC(C)C(O)(C(=O)OCC1=CCN2CCC(O)C12)C(C)O (stereo not given)	3.65
CC(C)(C)NCC(O)COc1ccccc1C#N (stereo not given)	4.66
COCCOc1ccccc1S(=O)(=O)NC(=O)Nc1nc(OC)nc(OC)n1	6.36
CCCc1nn(C)c2c(=O)[nH]c(-c3cc(C(=O)CN4CC(C)NC(C)C4)ccc3OCC)nc12 (stereo not given)	7.5
CCOc1ccccc1OS(=O)(=O)NC(=O)Nc1nc(OC)cc(OC)n1	9.32
CN(C)CCC=C1c2ccccc2C=Cc2ccccc21	7.95
CCC(C)(C)c1ccc(CC(C)CN2CC(C)OC(C)C2)cc1 (stereo not given)	12.9
Nc1nc2c(ncn2COCCO)c(=O)[nH]1	2.34
CC(O)Cn1cnc2c1c(=O)n(C)c(=O)n2C (stereo not given)	4.34
CC12C=CC(=O)C=C1CCC1C2C(=O)CC2(C)C1CCC2(O)C(=O)CO (stereo not given)	7.85
CCCCOCCOCCSC#N	8.12
CCCC(C(=O)c1ccccc1)N1CCCC1 (stereo not given)	5.08
CC(Cc1ccccc1)NCCC#N (stereo not given)	4.14
COc1ccc(-c2ccccc2)cc1NNC(=O)OC(C)C	9.87
CCNC1(c2cccc(OC)c2)CCCCC1=O (stereo not given)	4.93
CN1C(=O)CC(C)(c2ccccc2)C1=O (stereo not given)	6.71

Structure (SMILES)	LC retention time [min]
C#CCOS(=O)OC1CCCCC1Oc1ccc(C(C)(C)C)cc1 (stereo not given)	12.8
NN1CC(=O)N2C(Cc3c([nH]c4ccccc34)C2c2ccc3c(c2)OCO3)C1=O (stereo not given)	7.84
CCC(C)C1OC2(CCC1C)CC1CC(CC=C(C)C(OC3CC(OC)C(OC4CC(OC)C(O)C(C)O4)C(C)O3)C(C)C=CC=C3COC4C(O)C(C)=CC(C(=O)O1)C34O)O2 (stereo not given)	14.4
CN(C)CC1CCCCC1(O)c1cccc(O)c1 (stereo not given)	4.06
OC(c1ccccc1)(c1ccccc1)C1CCNCC1	6.19
CC(=O)Nc1ccc(OC(=O)c2ccccc2OC(C)=O)cc1	7.41
Nc1ccc(S(=O)(=O)Nc2cnc3ccccc3n2)cc1	5.81
CCN1CCCC1CNC(=O)c1cc(S(=O)(=O)CC)c(N)cc1OC (stereo not given)	3.88
CCCCc1oc2ccc(NS(C)(=O)=O)cc2c1C(=O)c1ccc(OCCCN(CCCC)CCCC)cc1	10.1
CC(O)CN1CCN(CC(=O)O)CCN(CC(=O)O)CCN(CC(=O)O)CC1 (stereo not given)	1.31
Nc1nc2ccccc2[nH]1	3.74
CC(C)(C)N1CCC(c2ccccc2)(c2ccccc2)CC1	6.72
CC(C)(C)NCC(O)c1ccc(O)c(NC(N)=O)c1 (stereo not given)	2.89
CCC1OC(=O)CC(O)C(C)C(OC2OC(C)C(OC3CC(C)(O)C(O)C(C)O3)C(N(C)C)C2O)C(CC=O)CC(C)C(=O)C=CC(C)=CC1COC1OC(C)C(O)C(OC)C1OC (stereo not given)	7.88
CCN(CC)CCNC(=O)c1cc(S(C)(=O)=O)ccc1OC	3.41
CCOC(=O)CC(SP(=S)(OC)OC)C(=O)OCC (stereo not given)	9.59
COC(=O)C1C2CC3c4[nH]c5cc(OC)ccc5c4CCN3CC2CC(OC(=O)c2cc(OC)c(OC)c(OC)c2)C1OC (stereo not given)	8.47
CNC(C)Cc1ccc(O)c(OC)c1 (stereo not given)	3.19
COc1ccc(CCNCCCC(C#N)(c2ccc(OC)c(OC)c2)C(C)C)cc1OC (stereo not given)	6.96
CCCc1nn(C)c2c(=O)[nH]c(-c3cc(S(=O)(=O)N4CCN(CC)CC4)ccc3OCC)nc12	7.84
CN(C)CCC=C1c2ccccc2C(C)(C)c2ccccc21	8.79
CC(CC(c1ccccc1)c1ccccc1)NC(C)(C)C (stereo not given)	7.91

Structure (SMILES)	LC retention time [min]
CC(N)Cc1ccccc1 (stereo not given)	4.16
CC(Cc1ccc2c(c1)OCO2)N(C)C (stereo not given)	4.08
CCOC(=O)C=C1SC(N2CCCCC2)C(=O)N1CC (stereo not given)	9.85
Cc1nccc2c1[nH]c1ccccc12	4.91
CC(C)NC(=O)c1ccccc1O	7.14
c1ccc2c(c1)Cc1cccnc1N1CCNCC21 (stereo not given)	5.31
COc1cccc(C2(O)CCCCC2C[N+](C)(C)[O-])c1 (stereo not given)	5.24
CC(CN1c2ccccc2Sc2cccnc21)N(C)C (stereo not given)	6.47
CCCn1c(C)c(C(=O)c2cccc3ccccc23)c2ccccc21	11.5
CCCC(NC(C)C(=O)N1C(C(=O)O)CC2CCCCC21)C(=O)OCC (stereo not given)	13.2
COc1ccc2c3c1OC1C(OC(C)=O)=CCC4C(C2)N(C)CCC314 (stereo not given)	4.47
CN(C)c1nc(N(C)C)nc(N(C)C)n1	10.1
CC(C)(ON=C(C(=O)NC1C(=O)N2C(C(=O)[O-])=C(C[n+]3ccccc3)CSC12)c1csc(N)n1)C(=O)O (stereo not given)	3.38
Cn1c(=O)c2c(ncn2CCCNCC(O)c2cc(O)cc(O)c2)n(C)c1=O (stereo not given)	3.56
CCNC(C)Cc1ccc2c(c1)OCO2 (stereo not given)	4.39
COC(=O)C1=CCCN(C)C1	1.74
CC(=O)CC(c1ccccc1)c1c(O)c2ccccc2oc1=O (stereo not given)	9.08
CC12CCC3c4ccc(O)cc4CCC3C1CC(O)C2O (stereo not given)	6.83
CCCCCCCCCc1ccc(OCCO)cc1	13.2
CC(C)C(O)(C(=O)OCC1=CC[N+]2([O-])CCC(O)C12)C(C)O (stereo not given)	3.94
NC(=O)CS(=O)C(c1ccccc1)c1ccccc1 (stereo not given)	6.76
CC1C2Cc3ccc(O)cc3C1(C)CCN2CCc1ccccc1 (stereo not given)	6.08

Structure (SMILES)	LC retention time [min]
COc1nc(C)nc(N)n1	3.71
COC(=O)c1ccccc1CS(=O)(=O)NC(=O)Nc1nc(OC)cc(OC)n1	8.77
CC(C)(C)c1ccc(C(=O)CCCN2CCC(OC(c3ccccc3)c3ccccc3)CC2)cc1	10.9
CN1CCN(C(c2ccccc2)c2ccccc2)CC1	6.94
Cc1cn(C2CC(N=[N+]=[N-])C(CO)O2)c(=O)[nH]c1=O (stereo not given)	4.56
CCN(CC)CCOC(=O)C(c1ccccc1)C1CCCCC1 (stereo not given)	9.19
CC(=O)N(C)N(C(=O)C(=O)N(C)C)c1ccccc1	5.06
CNC(C)CC1CCCCC1 (stereo not given)	5.74
CCC(C(=O)c1ccc2c(c1)OCO2)N(C)C (stereo not given)	4.38
CCN(CC)CCNC(=O)c1ccc(N)cc1	2.83
CN1CCN(CCC=C2c3ccccc3Sc3ccc(S(=O)(=O)N(C)C)cc32)CC1	8.38
CC(Cc1ccc(C(C)C(=O)O)cc1)C(=O)O (stereo not given)	6.99
CCN(CC)CC(=O)Nc1c(C)cccc1C(=O)OC	4.59
CC(=O)OCC(=O)C1(O)CCC2C3CCC4=CC(=O)CCC4(C)C3C(O)CC21C (stereo not given)	8.8
COc1cc2c(cc1OC)CC(=O)N(CCCN(C)CC1Cc3cc(OC)c(OC)cc31)CC2 (stereo not given)	5.02
CCCCCn1nc(C(=O)NC23CC4CC(CC(C4)C2)C3)c2ccccc21	14
CNCC(c1ccc(OC)cc1)C1(O)CCCCC1 (stereo not given)	6.18
CC(NC(=O)C(N)CC(=O)O)C(=O)NC1C(C)(C)SC1(C)C (stereo not given)	6.09
CC(C)(C)NCC(O)COc1ccccc1C1CCCC1 (stereo not given)	9.01
CC=C(C)C(=O)OC1CC(OC(C)=O)C2(C(=O)OC)COC3C2C12COC(O)(C(=O)OC)C2C(C)(C12OC1(C)C1CC2OC2OC=CC21O)C3O (stereo not given)	7.56
CCNc1nc(NCC)[nH]c(=O)n1	4.21
CN(C)CCc1ccc(O)cc1	2.28

Structure (SMILES)	LC retention time [min]
CCOP(=O)(NC(C)C)Oc1ccc(SC)c(C)c1 (stereo not given)	10.4
CSc1ccc2c(c1)N(CCC1CCCCN1C)c1ccccc1S2 (stereo not given)	9.34
Cc1cc(C)n(-c2nc3ccccc3[nH]2)n1	8.27
CCOc1cc(OP(=S)(OC)OC)nc(CC)n1	11
COc1cc(Cc2cnc(N)nc2N)cc(OC)c1OC	4.06
Nc1ncn[nH]1	1.44
N#CCCCCn1cc(C(=O)c2cccc3ccccc23)c2ccccc21	9.69
CC1COC(=O)c2cc3c(cc21)C(C)(C)C(C)C3(C)C (stereo not given)	12
C=C1CC(=CC)C(=O)OC2CCN3CC=C(COC(=O)C1(C)O)C23 (stereo not given)	4.17
OCCOCCN1CCN(C2=Nc3ccccc3Sc3ccccc32)CC1	7.26
CCCOP(=O)(OCCC)Oc1ccc(SC)cc1	10.8
CCC1(c2ccc(N)cc2)CCC(=O)NC1=O (stereo not given)	4.99
COC1CC(OC2C(C)OC(OC3C(C)=CCC4CC(CC5(C=CC(C)C(C(C)C)O5)O4)OC(=O)C4C=C(C)C(O)C5OCC(=CC=CC3C)C45O)CC2OC)OC(C)C1O (stereo not given)	13.4
Cc1nnc(NS(=O)(=O)c2ccc(N)cc2)s1	4.21
CCOC(=O)C1(c2ccccc2)CCC=CC1N(C)C (stereo not given)	5.1
CSc1ccc(CC(C)N)cc1 (stereo not given)	5.24
CN(C)CCC=C1c2ccccc2CCc2ccccc21	8.23
COc1ccc(C(C[N+](C)(C)[O-])C2(O)CCCCC2)cc1 (stereo not given)	6.94
NC(=O)C1CCNCC1	1.26
CCCOC(C(=O)OC1CCN(C)CC1)(c1ccccc1)c1ccccc1	9.36
CNC(=O)Oc1cc(C)c(N(C)C)c(C)c1	9.3
CCOC(=O)CC(SP(=O)(OC)OC)C(=O)OCC (stereo not given)	7.01
